Like-named read-outs stand apart in the source and are kept apart here.
Tests used:
[1] = in humans, metabolite formed by CYP2C8; cited from earlier work
[2] = tested on: Ebolavirus; details: cited from earlier work
[3] = tested on: EBOV-GFP (recombinant Ebolavirus encoding a GFP reporter gene); assay: microbe, parasite or virus in culture; type: cell-based
[4] = tested on: Huh7 cells; assay: Cytotoxicity, CellTiter-Glo Luminescent Cell Viability Assay; details: Table 2, 24 h incubation
[5] = as above; details: human, Huh7 cells
[6] = tested on: Ebolavirus; details: human, in vivo; cited from earlier work

SMILES | half-life [1] [days] | anti-Ebolavirus activity (previous reports) [2] | Selectivity index [3] | fold potency relative to amodiaquine [3] [fold] | IC50 ([3]; Orthoebolavirus, Huh-7) [nM] | IC50 ([3]; Orthoebolavirus, Huh-7, 24 h) [nM] | CC50 [4] [µM] | CC50 at 24 h [5] [µM] | IC50 ([3]; read-out: IC50) [nM] | mortality rate [6] [%]
CCNCc1cc(Nc2ccnc3cc(Cl)ccc23)ccc1O [desethyl-amodiaquine] | 9 to 18 | potent anti-Ebolavirus activity | – | – | – | – | – | – | – | –
CCN(CC)Cc1cc(Nc2ccnc3cc(I)ccc23)ccc1O [Compound 18, 4-(7-iodoquinolin-4-ylamino)-2-diethylaminomethylphenol] | – | – | >156 | 3.3 | 640 | 640 ± 50 | > 100 | > 100 | – | –
CCN(CC)Cc1cc(Nc2ccnc3cc(Cl)ccc23)ccc1O [Amodiaquine] | – | potent anti-Ebolavirus activity | – | – | – | – | 79 | – | 2130 | 50
CCN(CC)CCCC(C)Nc1c2ccc(Cl)cc2nc2ccc(OC)cc12 (centres unmarked) [quinacrine] | – | anti-Ebolavirus activities | – | – | – | – | – | – | – | –
CCCCN(CCCC)Cc1cc(Nc2ccnc3cc(Cl)ccc23)ccc1O [Compound 28, 4-(7-chloroquinolin-4-ylamino)-2-dibutylaminomethylphenol] | – | – | >139 | – | 720 | 720 ± 80 | > 100 | > 100 | – | –
COc1ccc2nc3cc(Cl)ccc3c(Nc3cc(CN4CCCC4)c(O)c(CN4CCCC4)c3)c2n1 [pyronaridine] | – | anti-Ebolavirus activities | – | – | – | – | – | – | – | –
CCCN(C)Cc1cc(Nc2ccnc3cc(I)ccc23)ccc1O [Compound 34, 4-(7-iodoquinolin-4-ylamino)-2-methylpropylaminomethylphenol] | – | – | >233 | – | 430 | 430 ± 60 | – | > 100 | – | –
Oc1ccc(Nc2ccnc3cc(I)ccc23)cc1CN1CCOCC1 [Compound 44, 4-(7-iodoquinolin-4-ylamino)-2-(4-morpholinylmethyl)phenol] | – | – | >63 | – | 1590 | 1590 ± 120 | – | > 100 | – | –
CN(Cc1cc(Nc2ccnc3cc(Cl)ccc23)ccc1O)C(C)(C)C [Compound 15, 4-(7-chloroquinolin-4-ylamino)-2-(tert-butylmethylamino)methylphenol] | – | – | 33 | – | 1280 | 1280 ± 70 | – | 41.8 | – | –
CCCN(CC)Cc1cc(Nc2ccnc3cc(Cl)ccc23)ccc1O [Compound 29, 4-(7-chloroquinolin-4-ylamino)-2-(ethylpropylamino)methylphenol] | – | – | >72 | – | 1390 | 1390 ± 130 | – | > 100 | – | –
CCCCCCCCN(C)Cc1cc(Nc2ccnc3cc(I)ccc23)ccc1O [Compound 38, 4-(7-iodoquinolin-4-ylamino)-2-methyloctylaminomethylphenol] | – | – | >385 | – | 260 | 260 ± 60 | – | > 100 | – | –
CCCCN(CC)Cc1cc(Nc2ccnc3cc(I)ccc23)ccc1O [Compound 41, 4-(7-iodoquinolin-4-ylamino)-2-ethylbutylaminomethylphenol] | – | – | 147 | – | 410 | 410 ± 40 | – | 60.4 | – | –
CCCN(CCC)Cc1cc(Nc2ccnc3cc(Cl)ccc23)ccc1O [Compound 26, 4-(7-chloroquinolin-4-ylamino)-2-dipropylaminomethylphenol] | – | – | >106 | – | 940 | 940 ± 80 | – | > 100 | – | –
CC(C)N(C)Cc1cc(Nc2ccnc3cc(Cl)ccc23)ccc1O [Compound 8, 4-(7-chloroquinolin-4-ylamino)-2-(isopropylmethylamino)methylphenol] | – | – | 27 | – | 1460 | 1460 ± 140 | – | 39.2 | – | –
CCCCN(C)Cc1cc(Nc2ccnc3cc(I)ccc23)ccc1O [Compound 35, 4-(7-iodoquinolin-4-ylamino)-2-butylmethylaminomethylphenol] | – | – | 150 | – | 440 | 440 ± 40 | – | 66.1 | – | –
Oc1ccc(Nc2ccnc3cc(I)ccc23)cc1CN1CCCCC1 [Compound 43, 4-(7-iodoquinolin-4-ylamino)-2-(1-piperidinylmethyl)phenol] | – | – | >270 | – | 370 | 370 ± 70 | – | > 100 | – | –
Oc1ccc(Nc2ccnc3cc(I)ccc23)cc1CN1CCSCC1 [Compound 45, 4-(7-iodoquinolin-4-ylamino)-2-(4-thiamorpholinylmethyl)phenol] | – | – | >51 | – | 1950 | 1950 ± 220 | – | > 100 | – | –
Oc1ccc(Nc2ccnc3cc(Cl)ccc23)cc1CN1CCCC1 [Compound 21, 4-(7-chloroquinolin-4-ylamino)-2-pyrrolidinylmethylphenol] | – | – | 30 | – | 1090 | 1090 | – | 33.2 | – | –
CCN(CCO)Cc1cc(Nc2ccnc3cc(I)ccc23)ccc1O [Compound 39, 4-(7-iodoquinolin-4-ylamino)-2-ethyl(2-hydroxyethyl)aminomethylphenol] | – | – | >244 | – | 410 | 410 ± 50 | – | > 100 | – | –

Source: US11571416B2, “Amodiaquine analogs and methods of uses thereof” (priority 2017, dated 2023)
